Source: ChEMBL document CHEMBL1201862, “PubChem BioAssay data set” (2004)
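Cells were grown in 96-well plates and exposed to each compound for 48 hours at five concentrations; endpoints were interpolated linearly between bracketing concentrations, or set to the highest concentration if not reached. Here, GI50 denotes the concentration required for 50% inhibition of growth.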 Active and inactive are the calls of the source. Cut-off read from the data, not from the text of the source: active = GI50 up to about 1.1 µM and inactive = higher.

Experiments:
Assay in all cases: inhibition of tumour cell growth, NCI panel, 48 h
NCI-H460 = test system: NCI-H460
SF-295 = test system: SF-295
HCT-15 = test system: HCT-15
MDA-N = test system: MDA-N
NCI-H23 = test system: NCI-H23
HCC 2998 = test system: HCC 2998
CAKI-1 = test system: CAKI-1
RPMI-8226 = test system: RPMI-8226
SW-620 = test system: SW-620
U-251 = test system: U-251
A549 = test system: A549
LOX IMVI = test system: LOX IMVI
A498 = test system: A498
PC-3 = test system: PC-3
TK-10 = test system: TK-10
NCI-H522 = test system: NCI-H522
UACC-62 = test system: UACC-62
SK-MEL-2 = test system: SK-MEL-2
BT-549 = test system: BT-549
SNB-19 = test system: SNB-19
DU-145 = test system: DU-145
T47D = test system: T47D
UO-31 = test system: UO-31
SK-OV-3 = test system: SK-OV-3
SF-268 = test system: SF-268
KM12 = test system: KM12
HOP-92 = test system: HOP-92
EKVX = test system: EKVX
RXF 393 = test system: RXF 393
NCI-H226 = test system: NCI-H226
SN12C = test system: SN12C
SF-539 = test system: SF-539
K562 = test system: K562
HT-29 = test system: HT-29
HOP-62 = test system: HOP-62
OVCAR-5 = test system: OVCAR-5
Malme-3M = test system: Malme-3M
SK-MEL-28 = test system: SK-MEL-28
OVCAR-4 = test system: OVCAR-4
HCT-116 = test system: HCT-116
COLO 205 = test system: COLO 205
MDA-MB-231 = test system: MDA-MB-231
OVCAR-3 = test system: OVCAR-3
M14 = test system: M14
UACC-257 = test system: UACC-257
MCF7 = test system: MCF7
HL-60 = test system: HL-60
CCRF-CEM = test system: CCRF-CEM
SK-MEL-5 = test system: SK-MEL-5
SR = test system: SR
MDA-MB-435 = test system: MDA-MB-435
MOLT-4 = test system: MOLT-4
786-0 = test system: 786-0
Hs-578T = test system: Hs-578T
ACHN = test system: ACHN
SNB-75 = test system: SNB-75
OVCAR-8 = test system: OVCAR-8
IGROV-1 = test system: IGROV-1
NCI/ADR-RES = test system: NCI/ADR-RES

In the case of `COc1cccc2c(NNc3ccc(Cl)cc3)c3ccc([N+](=O)[O-])cc3nc12`, the GI50 (NCI-H460) is reported as 4.92 µM (inactive), the GI50 (SF-295) is reported as 16.2 µM (inactive) and the GI50 (HCT-15) is reported as 8.59 µM. The GI50 (MDA-N) was 36.4 µM (inactive), the GI50 (NCI-H23) was 13.3 µM (inactive) and the GI50 (HCC 2998) was 13.8 µM (inactive). The GI50 (CAKI-1) was 2.28 µM (inactive), the GI50 (RPMI-8226) was 14.3 µM (inactive) and the GI50 (SW-620) was 13.8 µM (inactive). For the same molecule, the GI50 (U-251) was 11.7 µM (inactive), the GI50 (A549) was 12.6 µM (inactive) and the GI50 (LOX IMVI) was 11.3 µM (inactive). The GI50 (A498) was 12.9 µM (inactive), the GI50 (PC-3) was 8.91 µM (inactive) and the GI50 (TK-10) was 10.3 µM (inactive). The GI50 (NCI-H522) was 6.07 µM (inactive), the GI50 (UACC-62) was 8.38 µM (inactive) and the GI50 (SK-MEL-2) was 13 µM (inactive). For the same molecule, the GI50 (BT-549) was 14 µM (inactive), the GI50 (SNB-19) was 14.8 µM (inactive) and the GI50 (DU-145) was 9.84 µM (inactive). For the same molecule, the GI50 (T47D) was 5.43 µM (inactive), the GI50 (UO-31) was 5.33 µM (inactive) and the GI50 (SK-OV-3) was 15.1 µM (inactive). The GI50 (SF-268) was 12.7 µM (inactive), the GI50 (KM12) was 18.7 µM (inactive) and the GI50 (HOP-92) was 10.9 µM (inactive). The GI50 (EKVX) was 12.5 µM (inactive), the GI50 (RXF 393) was 14.7 µM (inactive) and the GI50 (NCI-H226) was 13.9 µM (inactive). For the same molecule, the GI50 (SN12C) was 20.8 µM (inactive), the GI50 (SF-539) was 17.7 µM (inactive) and the GI50 (K562) was 11.7 µM (inactive). For the same molecule, the GI50 (HT-29) was 14.2 µM (inactive), the GI50 (HOP-62) was 10.9 µM (inactive) and the GI50 (OVCAR-5) was 22.9 µM (inactive). For the same molecule, the GI50 (Malme-3M) was 10.3 µM (inactive), the GI50 (SK-MEL-28) was 39.7 µM (inactive) and the GI50 (OVCAR-4) was 11.9 µM (inactive). For the same molecule, the GI50 (HCT-116) was 7.28 µM (inactive), the GI50 (COLO 205) was 21.6 µM (inactive) and the GI50 (MDA-MB-231) was 12.7 µM (inactive). The GI50 (OVCAR-3) was 12.5 µM (inactive), the GI50 (M14) was 12.3 µM (inactive) and the GI50 (UACC-257) was 19.2 µM (inactive). The GI50 (MCF7) was 19.2 µM (inactive), the GI50 (HL-60) was 5.92 µM (inactive) and the GI50 (CCRF-CEM) was 2.74 µM (inactive). The GI50 (SK-MEL-5) was 12.4 µM (inactive), the GI50 (SR) was 1.08 µM (active) and the GI50 (MDA-MB-435) was 29.7 µM (inactive). The GI50 (MOLT-4) was 1.92 µM (inactive), the GI50 (786-0) was 8.97 µM (inactive) and the GI50 (Hs-578T) was 14.5 µM (inactive). The GI50 (ACHN) was 5.68 µM (inactive).

`OCc1ccc2c(c1)CC1(Cc3ccc(/C=N/O)cc3C1)C2` (stereo not given) was tested, and the GI50 (NCI-H460) was 3.3 µM (inactive), the GI50 (SF-295) was 2.43 µM (inactive) and the GI50 (HCT-15) was 1.16 µM. The GI50 (MDA-N) was 0.328 µM (active), the GI50 (SNB-75) was 2.88 µM (inactive) and the GI50 (NCI-H23) was 3.19 µM (inactive). For the same molecule, the GI50 (HCC 2998) was 1.97 µM (inactive), the GI50 (CAKI-1) was 7.8 µM (inactive) and the GI50 (RPMI-8226) was 2.25 µM (inactive). The GI50 (SW-620) was 1.68 µM (inactive), the GI50 (U-251) was 2.86 µM (inactive) and the GI50 (A549) was 4.93 µM (inactive). The GI50 (LOX IMVI) was 2.93 µM (inactive), the GI50 (A498) was 27.7 µM (inactive) and the GI50 (PC-3) was 3.74 µM (inactive). The GI50 (TK-10) was 13.4 µM (inactive), the GI50 (NCI-H522) was 2.08 µM (inactive) and the GI50 (UACC-62) was 3.24 µM (inactive). For the same molecule, the GI50 (SK-MEL-2) was 7.26 µM (inactive), the GI50 (BT-549) was 10.4 µM (inactive) and the GI50 (SNB-19) was 5.35 µM (inactive). For the same molecule, the GI50 (DU-145) was 5.24 µM (inactive), the GI50 (OVCAR-8) was 4.45 µM (inactive) and the GI50 (T47D) was 11.3 µM (inactive). For the same molecule, the GI50 (UO-31) was 7.08 µM (inactive), the GI50 (SK-OV-3) was 6.05 µM (inactive) and the GI50 (SF-268) was 13.7 µM (inactive). The GI50 (KM12) was 1.29 µM (inactive), the GI50 (HOP-92) was 7.74 µM (inactive) and the GI50 (EKVX) was 6.73 µM (inactive). For the same molecule, the GI50 (NCI-H226) was 10 µM (inactive), the GI50 (SN12C) was 2.61 µM (inactive) and the GI50 (SF-539) was 2.72 µM (inactive). The GI50 (K562) was 1.8 µM (inactive), the GI50 (HT-29) was 1.89 µM (inactive) and the GI50 (HOP-62) was 5.45 µM (inactive). For the same molecule, the GI50 (OVCAR-5) was 23.7 µM (inactive), the GI50 (Malme-3M) was 9.1 µM (inactive) and the GI50 (SK-MEL-28) was 6.82 µM (inactive). For the same molecule, the GI50 (OVCAR-4) was 1.92 µM (inactive), the GI50 (HCT-116) was 3.26 µM (inactive) and the GI50 (COLO 205) was 3.1 µM (inactive). The GI50 (MDA-MB-231) was 6.27 µM (inactive), the GI50 (OVCAR-3) was 2.74 µM (inactive) and the GI50 (M14) was 1.99 µM (inactive). For the same molecule, the GI50 (UACC-257) was 2.19 µM (inactive), the GI50 (IGROV-1) was 2.84 µM (inactive) and the GI50 (MCF7) was 2 µM (inactive). For the same molecule, the GI50 (HL-60) was 0.41 µM (active), the GI50 (CCRF-CEM) was 1.96 µM (inactive) and the GI50 (SK-MEL-5) was 1.34 µM (inactive). The GI50 (MDA-MB-435) was 0.445 µM (active), the GI50 (MOLT-4) was 4.73 µM (inactive) and the GI50 (NCI/ADR-RES) was 3.32 µM (inactive). The GI50 (786-0) was 10.4 µM (inactive), the GI50 (Hs-578T) was 2.45 µM (inactive) and the GI50 (ACHN) was 7.08 µM (inactive).

`NS(=O)(=O)c1nnc(NC(=O)C23CC4CC(CC(C4)C2)C3)s1` was tested, and the GI50 (NCI-H460) was 60.1 µM (inactive), the GI50 (SF-295) was > 100 µM (inactive) and the GI50 (HCT-15) was greater than 100 µM. The GI50 (MDA-N) was > 100 µM (inactive), the GI50 (NCI-H23) was > 100 µM (inactive) and the GI50 (HCC 2998) was > 100 µM (inactive). The GI50 (CAKI-1) was > 100 µM (inactive), the GI50 (RPMI-8226) was 88.9 µM (inactive) and the GI50 (SW-620) was > 100 µM (inactive). The GI50 (U-251) was > 100 µM (inactive), the GI50 (A549) was > 100 µM (inactive) and the GI50 (LOX IMVI) was > 100 µM (inactive). For the same molecule, the GI50 (A498) was > 100 µM (inactive), the GI50 (TK-10) was > 100 µM (inactive) and the GI50 (NCI-H522) was 68.2 µM (inactive). The GI50 (UACC-62) was > 100 µM (inactive), the GI50 (SK-MEL-2) was > 100 µM (inactive) and the GI50 (BT-549) was 82.2 µM (inactive). For the same molecule, the GI50 (SNB-19) was > 100 µM (inactive), the GI50 (DU-145) was > 100 µM (inactive) and the GI50 (OVCAR-8) was > 100 µM (inactive). The GI50 (T47D) was 90.4 µM (inactive), the GI50 (UO-31) was > 100 µM (inactive) and the GI50 (SK-OV-3) was > 100 µM (inactive). The GI50 (SF-268) was 55.7 µM (inactive), the GI50 (KM12) was > 100 µM (inactive) and the GI50 (HOP-92) was > 100 µM (inactive). For the same molecule, the GI50 (EKVX) was > 100 µM (inactive), the GI50 (RXF 393) was 61.7 µM (inactive) and the GI50 (NCI-H226) was > 100 µM (inactive). The GI50 (SN12C) was > 100 µM (inactive), the GI50 (SF-539) was > 100 µM (inactive) and the GI50 (K562) was > 100 µM (inactive). For the same molecule, the GI50 (HOP-62) was > 100 µM (inactive), the GI50 (OVCAR-5) was > 100 µM (inactive) and the GI50 (Malme-3M) was > 100 µM (inactive). The GI50 (SK-MEL-28) was > 100 µM (inactive), the GI50 (OVCAR-4) was 0.101 µM (active) and the GI50 (HCT-116) was > 100 µM (inactive). The GI50 (COLO 205) was > 100 µM (inactive), the GI50 (MDA-MB-231) was > 100 µM (inactive) and the GI50 (OVCAR-3) was > 100 µM (inactive). The GI50 (M14) was > 100 µM (inactive), the GI50 (UACC-257) was > 100 µM (inactive) and the GI50 (MCF7) was > 100 µM (inactive). The GI50 (SK-MEL-5) was 96.2 µM (inactive), the GI50 (SR) was > 100 µM (inactive) and the GI50 (MDA-MB-435) was > 100 µM (inactive). The GI50 (MOLT-4) was > 100 µM (inactive), the GI50 (NCI/ADR-RES) was > 100 µM (inactive) and the GI50 (786-0) was > 100 µM (inactive). For the same molecule, the GI50 (Hs-578T) was > 100 µM (inactive) and the GI50 (ACHN) was > 100 µM (inactive).
